Source: ChEMBL document CHEMBL5104207, “Synthesis, biological evaluation and computational studies of pyrazole derivatives as Mycobacterium tuberculosis CYP121A1 inhibitors” (RSC Med Chem, 2022)
Activity calls are given as the source filed them. No cut-off for these calls is given here.

System: Mycobacterium tuberculosis
Assay: Binding affinity to BTFA labelled recombinant Mycobacterium tuberculosis CYP121A1 C171S mutant assessed as change in chemical shift perturbation incubated for 15 mins by 19F NMR spectroscopy

For `CC(C)Oc1ccc(-c2nn(-c3ccc(F)cc3)cc2Cn2ccnc2)cc1`, the Activity was “Active”.
In the case of `COc1ccc(-c2nn(-c3ccc(F)cc3)cc2Cn2ccnc2)cc1`, the Activity is reported as “Active”.
In the case of `COc1ccc(-c2nn(-c3ccc(Cl)cc3)cc2Cn2cncn2)cc1`, the Activity is reported as “Active”.
`CCOc1ccc(-c2nn(-c3ccc(Cl)cc3)cc2Cn2cncn2)cc1` was tested, and the Activity was “Active”.
